Experimental data published in US20070249670A1, “Glycogen Phosphorylase Inhibitor Compounds and Pharmaceutical Compositions Thereof” (SMITHKLINE BEECHAM CORPORATION, priority 2004, published 2007).

Molecular target: T1, human liver glycogen phosphorylase a (HLGPa) (Homo sapiens, UniProt P06737)
T1 construct: creating a full-length cDNA fused at the 5′ end to codons for methionine-glycine-alanine-histidine; 6xHis tag (leader Met-Gly-Ala-His6-Gly-Gly) (N); made in house; host or cells: E. coli (bacterial expression plasmid pTXK1007LTev)
T1 sequence (P06737 2-847 limits assumed): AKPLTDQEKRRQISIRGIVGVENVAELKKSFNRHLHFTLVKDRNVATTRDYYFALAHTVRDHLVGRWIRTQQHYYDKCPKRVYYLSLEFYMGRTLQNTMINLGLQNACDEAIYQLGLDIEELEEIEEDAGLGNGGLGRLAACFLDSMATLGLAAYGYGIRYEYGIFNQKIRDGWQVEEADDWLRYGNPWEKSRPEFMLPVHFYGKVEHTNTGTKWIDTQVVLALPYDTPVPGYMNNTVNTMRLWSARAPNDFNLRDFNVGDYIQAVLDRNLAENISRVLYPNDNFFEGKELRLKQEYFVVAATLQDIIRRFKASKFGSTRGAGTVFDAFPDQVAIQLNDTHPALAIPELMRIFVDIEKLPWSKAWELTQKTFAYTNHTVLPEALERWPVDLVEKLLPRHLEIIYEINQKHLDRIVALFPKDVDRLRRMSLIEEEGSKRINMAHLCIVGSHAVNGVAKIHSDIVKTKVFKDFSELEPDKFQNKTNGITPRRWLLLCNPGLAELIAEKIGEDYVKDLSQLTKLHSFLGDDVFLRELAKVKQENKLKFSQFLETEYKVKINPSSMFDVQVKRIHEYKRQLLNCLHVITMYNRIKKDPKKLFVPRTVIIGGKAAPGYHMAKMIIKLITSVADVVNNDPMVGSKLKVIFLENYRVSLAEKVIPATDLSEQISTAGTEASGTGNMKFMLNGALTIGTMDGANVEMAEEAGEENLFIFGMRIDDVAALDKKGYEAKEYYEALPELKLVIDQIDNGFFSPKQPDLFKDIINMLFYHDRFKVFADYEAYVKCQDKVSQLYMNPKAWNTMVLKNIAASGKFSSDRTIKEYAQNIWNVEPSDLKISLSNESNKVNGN
Test: Human liver glycogen phosphorylase a enzymatic activity assay (coupled, fluorescent resorufin readout, with and without 10 mM glucose)
Type: biochemical
Settings: human liver glycogen phosphorylase a enzymatic activity assay

| SMILES | IC50 |
| --- | --- |
| CCc1cc(C)c(NC(=O)Nc2cc(F)ccc2C(=O)N[C@H](C(=O)O)C2CCCCC2)c(C)c1 [Example 475, (2S)-cyclohexyl({[2-({[(4-ethyl-2,6-dimethylphenyl)amino]carbonyl}amino)-4-fluorophenyl]carbonyl}amino)ethanoic acid] | 51 nM |
| C=CCc1cc(C)c(NC(=O)Nc2cc(F)ccc2C(=O)N[C@H](C(=O)O)C2CCCCC2)c(C)c1 [Example 476, (2S)-cyclohexyl[({2-[({[2,6-dimethyl-4-(2-propen-1-yl)phenyl]amino}carbonyl)amino]-4-fluorophenyl}carbonyl)amino]ethanoic acid] | 30 nM |
| CCCc1cc(C)c(NC(=O)Nc2cc(F)ccc2C(=O)N[C@H](C(=O)O)C2CCCCC2)c(C)c1 [Example 477, (2S)-cyclohexyl({[2-({[(2,6-dimethyl-4-propylphenyl)amino]carbonyl}amino)-4-fluorophenyl]carbonyl}amino)ethanoic acid] | 8 nM |
| CCCCCc1cc(C)c(NC(=O)Nc2cc(F)ccc2C(=O)N[C@H](C(=O)O)C2CCCCC2)c(C)c1 [Example 478, (2S)-cyclohexyl({[2-({[(2,6-dimethyl-4-pentylphenyl)amino]carbonyl}amino)-4-fluorophenyl]carbonyl}amino)ethanoic acid] | 3 nM |
| CCCc1cc(C)c(NC(=O)Nc2cc(F)ccc2C(=O)N[C@@](C)(C(=O)O)C2CCCCC2)c(C)c1 [Example 479, 2-cyclohexyl-N-{[2-({[(2,6-dimethyl-4-propylphenyl)amino]carbonyl}amino)-4-fluorophenyl]carbonyl}-L-alanine] | 4 nM |
| CCCCc1cc(C)c(NC(=O)Nc2cc(F)ccc2C(=O)N[C@H](C(=O)O)C2CCCCC2)c(C)c1 [Example 480, (2S)-({[2-({[(4-butyl-2,6-dimethylphenyl)amino]carbonyl}amino)-4-fluorophenyl]carbonyl}amino)(cyclohexyl)ethanoic acid] | 20 nM |
| CCCc1cc(C)c(NC(=O)Nc2cc(-c3ccc(F)c(F)c3)ccc2C(=O)N[C@H](C(=O)O)[C@@H](C)OC(C)(C)C)c(C)c1 [Example 481, O-(1,1-dimethylethyl)-N-{[3-({[(2,6-dimethyl-4-propylphenyl)amino]carbonyl}amino)-3′,4′-difluoro-4-biphenylyl]carbonyl}-L-threonine] | 0.4 nM |
| Cc1cc(CC2CC2)cc(C)c1NC(=O)Nc1cc(F)ccc1C(=O)N[C@H](C(=O)O)C1CCCCC1 [Example 482, (2S)-cyclohexyl[({2-[({[4-(cyclopropylmethyl)-2,6-dimethylphenyl]amino}carbonyl)amino]-4-fluorophenyl}carbonyl)amino]ethanoic acid] | 5 nM |
| Cc1cc(CC2CC2)cc(C)c1NC(=O)Nc1cc(-c2ccc(F)c(F)c2)ccc1C(=O)N[C@H](C(=O)O)[C@@H](C)OC(C)(C)C [Example 483, N-({3-[({[4-(cyclopropylmethyl)-2,6-dimethylphenyl]amino}carbonyl)amino]-3′,4′-difluoro-4-biphenylyl}carbonyl)-O-(1,1-dimethylethyl)-L-threonine] | 1 nM |
| COc1ccc(-c2nc(NC(=O)Nc3c(Cl)cc(Cl)cc3Cl)c(C(=O)N[C@H](C(=O)O)C3CCCCC3)s2)cc1 [Example 484, (2S)-Cyclohexyl({[2-[4-(methyloxy)phenyl]-4-({[(2,4,6-trichlorophenyl)amino]carbonyl}amino)-1,3-thiazol-5-yl]carbonyl}amino)ethanoic acid] | 5000 nM |
| COc1ccc(-c2nc(C(=O)N[C@H](C(=O)O)C3CCCCC3)c(NC(=O)Nc3c(C)cccc3C(C)C)s2)cc1 [Example 486] | 1780 nM |
| COc1ccc(-c2nc(C(=O)N[C@H](C(=O)O)C3CCCCC3)c(NC(=O)Nc3c(Cl)cccc3Cl)s2)cc1 [Example 487, (2S)-Cyclohexyl[({5-({[(2,6-dichlorophenyl)amino]carbonyl}amino)-2-[4-(methyloxy)phenyl]-1,3-thiazol-4-yl}carbonyl)amino]ethanoic acid] | 740 nM |
| COc1ccc(-c2nc(C(=O)O)c(NC(=O)Nc3c(C)cc(C)cc3C)s2)cc1 [Example 488, 2-[4-(Methyloxy)phenyl]-5-({[(2,4,6-trimethylphenyl)amino]carbonyl}amino)-1,3-thiazole-4-carboxylic acid] | 8230 nM |
| COc1ccc(-c2nc(C(=O)NC3(C(=O)O)CCCCC3)c(NC(=O)Nc3c(C)cc(C)cc3C)s2)cc1 [Example 489, 1-({[2-[4-(Methyloxy)phenyl]-5-({[(2,4,6-trimethylphenyl)amino]carbonyl}amino)-1,3-thiazol-4-yl]carbonyl}amino)cyclohexanecarboxylic acid] | 34 nM |
| O=C(Nc1sc(-c2ccc(Cl)cc2)nc1C(=O)N[C@H](C(=O)O)C1CCCCC1)Nc1c(Cl)cc(Cl)cc1Cl [Example 490, (2S)-({[2-(4-Chlorophenyl)-5-({[(2,4,6-trichlorophenyl)amino]carbonyl}amino)-1,3-thiazol-4-yl]carbonyl}amino)(cyclohexyl)ethanoic acid] | 170 nM |
| Cc1cccc(C)c1NC(=O)Nc1cc2ccccc2cc1C(=O)N(C)CC(=O)O [Example 491, N-{[3-({[(2,6-dimethylphenyl)amino]carbonyl}amino)-2-naphthalenyl]carbonyl}-N-methylglycine] | 2110 nM |
| Cc1cccc(C)c1NC(=O)Nc1cc2ccccc2cc1C(=O)NCCCC(=O)O [Example 492, 4-({[3-({[(2,6-dimethylphenyl)amino]carbonyl}amino)-2-naphthalenyl]carbonyl}amino)butanoic acid] | 7520 nM |
| COC(=O)CCNC(=O)c1cc2ccccc2cc1NC(=O)Nc1c(C)cc(C)cc1C [Example 493, methyl N-{[3-({[(2,4,6-trimethylphenyl)amino]carbonyl}amino)-2-naphthalenyl]carbonyl}-beta-alaninate] | 9860 nM |
| Cc1cc(C)c(NC(=O)Nc2cc3ccccc3cc2C(=O)NCCC(=O)O)c(C)c1 [Example 494, N-{[3-({[(2,4,6-trimethylphenyl)amino]carbonyl}amino)-2-naphthalenyl]carbonyl}-beta-alanine] | 360 nM |
| Cc1cc(C)c(NC(=O)Nc2cc3ccccc3cc2C(=O)Nc2cccc(C(=O)O)c2)c(C)c1 [Example 495, 3-({[3-({[(2,4,6-trimethylphenyl)amino]carbonyl}amino)-2-naphthalenyl]carbonyl}amino)benzoic acid] | 300 nM |
| O=C(Nc1cc2ccccc2cc1C(=O)Nc1cscc1C(=O)O)Nc1c(Cl)cccc1Cl [Example 497, 4-({[3-({[(2,6-dichlorophenyl)amino]carbonyl}amino)-2-naphthalenyl]carbonyl}amino)-3-thiophenecarboxylic acid] | 17700 nM |
| Cc1cc(C)c(NC(=O)Nc2cc3ccccc3cc2C(=O)Nc2cc(C(=O)O)cc(C(=O)O)c2)c(C)c1 [Example 498, 5-({[3-({[(2,4,6-trimethylphenyl)amino]carbonyl}amino)-2-naphthalenyl]carbonyl}amino)-1,3-benzenedicarboxylic acid] | 110 nM |
| Cc1cccc(C)c1NC(=O)Nc1cc2ccccc2cc1C(=O)NC(C)CC(=O)O (stereo not drawn) [Example 500, 3-({[3-({[(2,6-dimethylphenyl)amino]carbonyl}amino)-2-naphthalenyl]carbonyl}amino)butanoic acid] | 2140 nM |
| Cc1cc(C)c(NC(=O)Nc2cc3ccccc3cc2C(=O)N[C@H](C(=O)O)c2ccc(O)cc2)c(C)c1 [Example 501, (2S)-(4-hydroxyphenyl)({[3-({[(2,4,6-trimethylphenyl)amino]carbonyl}amino)-2-naphthalenyl]carbonyl}amino)ethanoic acid] | 12 nM |
| Cc1cc(C)c(NC(=O)Nc2cc3ccccc3cc2C(=O)N[C@H](C(=O)O)C2CCC(O)CC2)c(C)c1 (stereo partly drawn) [Example 502, (2S)-(4-hydroxycyclohexyl)({[3-({[(2,4,6-trimethylphenyl)amino]carbonyl}amino)-2-naphthalenyl]carbonyl}amino)ethanoic acid] | 13 nM |
| COC(=O)[C@H](CC(=O)N(C)C)NC(=O)c1ccc(-c2ccc(OC)cc2)cc1NC(=O)Nc1c(C)cc(C)cc1C [Example 503, methyl N^4,N^4-dimethyl-N^2-{[4′-(methyloxy)-3-({[(2,4,6-trimethylphenyl)amino]carbonyl}amino)-4-biphenylyl]carbonyl}-L-asparaginate] | 11100 nM |
| COc1ccc(-c2ccc(C(=O)N[C@@H](CC(=O)N(C)C)C(=O)O)c(NC(=O)Nc3c(C)cc(C)cc3C)c2)cc1 [Example 504, N^4,N^4-dimethyl-N^2-{[4′-(methyloxy)-3-({[(2,4,6-trimethylphenyl)amino]carbonyl}amino)-4-biphenylyl]carbonyl}-L-asparagine] | 32 nM |
